# Data reported in patent publication US5693642A, “Piperazine derivatives as 5-HT1A ligands” (John Wyeth & Brother Ltd., priority 1993, dated 1997).
# Biological target: T1, 5-HT1A receptor (Rattus norvegicus, UniProt P19327)
# T1 construct: rat hippocampal membrane homogenate; from tissue; host or cells: rat hippocampal membrane homogenate
# T1 sequence (P19327 1-422): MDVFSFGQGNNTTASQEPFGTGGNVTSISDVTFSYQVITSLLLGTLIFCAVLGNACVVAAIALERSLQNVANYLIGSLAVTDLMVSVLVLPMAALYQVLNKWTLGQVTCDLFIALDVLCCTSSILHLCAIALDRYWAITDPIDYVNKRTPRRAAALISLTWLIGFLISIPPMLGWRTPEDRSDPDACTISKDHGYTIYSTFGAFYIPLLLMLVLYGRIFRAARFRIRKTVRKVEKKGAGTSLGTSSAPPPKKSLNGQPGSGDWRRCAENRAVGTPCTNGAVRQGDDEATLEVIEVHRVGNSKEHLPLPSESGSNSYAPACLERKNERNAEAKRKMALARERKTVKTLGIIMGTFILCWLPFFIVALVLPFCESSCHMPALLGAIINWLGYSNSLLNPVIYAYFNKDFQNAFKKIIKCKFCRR
# Assay: 5-HT1A receptor binding activity in rat hippocampal membrane homogenate
# Procedure: The compounds of the invention were tested for 5-HT1A receptor binding activity in rat hippocampal membrane homogenate by the method of B. S. Alexander and M. D. Wood, J Pharm Pharmacol, 1988, 40, 888-891.
row,Structure (SMILES),IC50 [nM]
1,"COc1ccccc1N1CCN(CCC(c2ccccn2)[S+]([O-])C2CCCCC2)CC1 (single isomer, unassigned) [Example 7, 1-(2-Methoxyphenyl)-4-[3-(cyclohexylsulphoxy)-3-(2-pyridinyl)propyl]piperazine]",15
2,COc1ccccc1N1CCN(CCC(C(=O)C2CCCCC2)c2ccccn2)CC1 (centres unmarked) [Example 3],2.6
3,COc1ccccc1N1CCN(CCC(CC2CCCCC2)c2ccccn2)CC1 (centres unmarked) [Example 4],1.6
4,"COc1ccccc1N1CCN(CCC(SC2CCCCC2)c2ccccn2)CC1 (centres unmarked) [Example 6, 1-(2-Methoxyphenyl)-4-[3-(cyclohexylthio)-3-(2-pyridinyl)propyl]piperazine]",4.25

# Other lines, results leading:
row,IC50 [nM],Structure (SMILES)
1,4,"COc1ccccc1N1CCN(C[C@H](c2ccccn2)[C@H](O)C2CCCCC2)CC1 (relative stereo) [Example 1a, R*, R*-1-(2Methoxyphenyl)-4-[(2-propan-(2-pyridinyl)-3-cyclohexyl)-3-ol]piperazine]"
2,4.3,"COc1ccccc1N1CCN(C[C@H](c2ccccn2)[C@@H](O)C2CCCCC2)CC1 (relative stereo) [Example 1b, R*, S*-1-(2-Methoxyphenyl)-4-[(2-propan-(2-pyridinyl)-3-cyclohexyl)-3-ol]piperazine]"
3,2,"COc1ccccc1N1CCN(CC[C@H](c2ccccn2)[C@H](O)C2CCCCC2)CC1 (relative stereo) [Example 2a, R*,R*-1-(2-Methoxyphenyl)-4-[3-butan-(2-pyridinyl)-4-cyclohexyl)-4-ol]piperazine]"
4,1.8,"COc1ccccc1N1CCN(CC[C@H](c2ccccn2)[C@@H](O)C2CCCCC2)CC1 (relative stereo) [Example 2b, R*,S*-1-(2-Methoxyphenyl)-4-[3-butan-(2-pyridinyl)-4-cyclohexyl)-4-ol]piperazine]"
